This passage reports melting point results from patent publication US7405228B2, “Antibacterial cyano-(substituted)-methylenepiperidinophenyl oxazolidinones targeting multiple ribonucleoprotein sites” (Wockhardt Limited, priority 2002, dated 2008).

The term melting point denotes the temperature, or range, at which the solid turns liquid. As for `N#CC=C1CCN(c2ccc(N3C[C@H](CN=C=O)OC3=O)cc2F)CC1` (stereo in doubt), the melting point was 172 to 174 °C.

As for `N#CC=C1CCN(c2ccc(N3CC(CN=[N+]=[N-])OC3=O)cc2)CC1` (stereo in doubt) [Example 1, (S)-{3-[4-(4-cyanomethylidene-piperidin-1-yl)-phenyl]-2-oxo-oxazolidin-5-ylmethyl}-azide], the melting point is 80 to 82 °C.

On to `N#CC=C1CCN(c2ccc(N3CC(Cn4cc(C#N)nn4)OC3=O)cc2)CC1` (stereo in doubt) [Example 5, (S)-1-{3-[4-(4-cyanomethylidene-piperidin-1-yl)-phenyl]-2-oxo-oxazolidin-5-ylmethyl}-4-cyano-1,2,3-triazole], for which the melting point lay in the range of 186 to 188 °C.

For the compound `N#CC=C1CCN(c2ccc(N3CC(CN=[N+]=[N-])OC3=O)cc2F)CC1` (stereo in doubt) [Example 16, (S)-{3-[4-(4-cyanomethylidene-piperidin-1-yl)-3-fluorophenyl]-2-oxo-oxazolidin-5-ylmethyl}-azide], the melting point lay within 112 to 114 °C.

As for `N#CC=C1CCN(c2ccc(N3C[C@H](CNC(=O)C4COC(=O)N4)OC3=O)cc2F)CC1` (stereo in doubt) [Example 24, (S)-N-{3-[4-(4-cyanomethylidene-piperidin-1-yl)-3-fluorophenyl]-2-oxo-oxazolidin-5-ylmethyl}-2-oxo-oxazolidin-4-yl-carboxamide], the melting point was found to be 145 °C.

Compound `N#CC=C1CCN(c2ccc(N3C[C@H](CNC(=O)C4CCCN4)OC3=O)cc2F)CC1` (stereo in doubt) [Example 25, (S)-N-{3-[4-(4-cyanomethylidene-piperidin-1-yl)-3-fluorophenyl]-2-oxo-oxazolidin-5-ylmethyl}-pyrrolidin-2-carboxamide] displayed a melting point of 155 °C.

`CCOC(=O)c1cn(CC2CN(c3ccc(N4CCC(=CC#N)CC4)c(F)c3)C(=O)O2)nn1` (stereo in doubt) [Example 26, (S)-1-{3-[4-(4-cyanomethylidene-piperidin-1-yl)-3-fluorophenyl]-2-oxo-oxazolidin-5-ylmethyl}-4-carboethoxy-1,2,3-triazole] had a melting point of 164 to 166 °C.

For the compound `CCOC(=O)c1cnnn1CC1CN(c2ccc(N3CCC(=CC#N)CC3)c(F)c2)C(=O)O1` (stereo in doubt) [Example 27, (S)-1-{3-[4-(4-cyanomethylidene-piperidin-1-yl)-3-fluorophenyl]-2-oxo-oxazolidin-5-ylmethyl}-5-carboethoxy-1,2,3-triazole], the melting point lay within 70 to 72 °C.

As to `N#CC=C1CCN(c2ccc(N3CC(Cn4cc(C#N)nn4)OC3=O)cc2F)CC1` (stereo in doubt) [Example 28, (S)-1-{3-[4-(4-cyanomethylidene-piperidin-1-yl)-3-fluorophenyl]-2-oxo-oxazolidin-5-ylmethyl}-4-cyano-1,2,3-triazole], the melting point fell in the range of 78 to 80 °C.

On to `N#CCC1CCN(c2ccc(N3CC(CN=[N+]=[N-])OC3=O)cc2)CC1` (stereo in doubt) [Example 122, (S)-{3-[4-(4-cyanomethyl-piperidin-1-yl)-phenyl]-2-oxo-oxazolidin-5-ylmethyl}-azide], for which the melting point lay within 85 to 86 °C.

Consider `CCOC(=O)c1cn(CC2CN(c3ccc(N4CCC(CC#N)CC4)cc3)C(=O)O2)nn1` (stereo in doubt) [Example 123, (S)-1-{3-[4-(4-cyanomethyl-piperidin-1-yl)-phenyl]-2-oxo-oxazolidin-5-ylmethyl}-4-carboethoxy-1,2,3-triazole], for which the melting point lay in the range of 198 to 200 °C.

`N#CCC1CCN(c2ccc(N3CC(Cn4cc(C(N)=O)nn4)OC3=O)cc2F)CC1` (stereo in doubt) [Example 127, (S)-1-{3-[4-(4-cyanomethyl-piperidin-1-yl)-3-fluorophenyl]-2-oxo-oxazolidin-5-ylmethyl}-4-carboxamido-1,2,3-triazole] had a melting point of 248 to 250 °C.

Regarding `N#CCC1CCN(c2ccc(N3CC(Cn4cc(C#N)nn4)OC3=O)cc2F)CC1` (stereo in doubt) [Example 128, (S)-1-{3-[4-(4-cyanomethyl-piperidin-1-yl)-3-fluorophenyl]-2-oxo-oxazolidin-5-ylmethyl}-4-cyano-1,2,3-triazole], the melting point lay in the range of 200 to 202 °C.

The compound `CS(=O)(=O)OC[C@H]1CN(c2ccc(N3CCC(=CC#N)CC3)cc2)C(=O)O1` [Example 6, (R)-{3-[4-(4-cyanomethylidene-piperidin-1-yl)-phenyl]-2-oxo-oxazolidin-5-ylmethyl}-methanesulphonate] returned a melting point of 120 to 122 °C.

Take `N#CC=C1CCN(c2ccc(N3C[C@H](CNC=O)OC3=O)cc2F)CC1` [Example 8, (S)-N-{3-[4-(4-cyanomethylidene-piperidin-1-yl)-3-fluorophenyl]-2-oxo-oxazolidin-5-ylmethyl}-formamide]: the melting point lay in the range of 183 to 184 °C.

As to `CC(C)(C)CC(=O)NC[C@H]1CN(c2ccc(N3CCC(=CC#N)CC3)c(F)c2)C(=O)O1` [Example 12, (S)-N-{3-[4-(4-cyanomethylidene-piperidin-1-yl)-3-fluorophenyl]-2-oxo-oxazolidin-5-ylmethyl}-3,3-dimethylbutanamide], the melting point lay within 210 to 212 °C.

Compound `N#CC=C1CCN(c2ccc(N3C[C@H](CNC(=O)CO)OC3=O)cc2F)CC1` [Example 13, (S)-N-{3-[4-(4-cyanomethylidene-piperidin-1-yl)-3-fluorophenyl]-2-oxo-oxazolidin-5-ylmethyl}-2-hydroxyacetamide] showed a melting point of 68 to 70 °C.

With `CC(C)(C)C(=O)OCC(=O)NC[C@H]1CN(c2ccc(N3CCC(=CC#N)CC3)c(F)c2)C(=O)O1` [Example 14, (S)-N-{3-[4-(4-cyanomethylidene-piperidin-1-yl)-3-fluorophenyl]-2-oxo-oxazolidin-5-ylmethyl}-2-pivolyloxyacetamide], the melting point lay within 91 to 93 °C.

In the case of `C=CCN(C#N)C[C@H]1CN(c2ccc(N3CCC(=CC#N)CC3)c(F)c2)C(=O)O1` [Example 22, (S)-{N-{3-[4-(4-cyanomethylidene-piperidin-1-yl)-3-fluorophenyl]-2-oxo-oxazolidin-5-ylmethylamino}N-cyano}-prop-2-ene], the melting point lay in the range of 111 to 113 °C.

In turn, `N#CC=C1CCN(c2ccc(N3C[C@H](CNC(=O)CC#N)OC3=O)cc2F)CC1` [Example 23, (S)-N-{3-[4-(4-cyanomethylidene-piperidin-1-yl)-3-fluorophenyl]-2-oxo-oxazolidin-5-ylmethyl}-2-cyanoacetamide] showed a melting point of 150 to 152 °C.

As for `N#CC=C1CCN(c2ccc(N3C[C@H](CNC(=O)C(F)F)OC3=O)cc2F)CC1` [Example 29, (S)-N-{3-[4-(4-cyanomethylidene-piperidin-1-yl)-3-fluorophenyl]-2-oxo-oxazolidin-5-ylmethyl}-difluoroacetamide], the melting point is 162 to 164 °C.

`N#CC=C1CCN(c2ccc(N3C[C@H](CNC(=O)C(Cl)(Cl)Cl)OC3=O)cc2F)CC1` [Example 33, (S)-N-{3-[4-(4-cyanomethylidene-piperidin-1-yl)-3-fluorophenyl]-2-oxo-oxazolidin-5-ylmethyl}-trichloroacetamide] registered a melting point of 142 to 144 °C.
